Measurements reported in patent publication US20200377561A1, “ANTIMICROBIAL PEPTIDES AND METHODS OF TREATING GRAM-NEGATIVE PATHOGEN INFECTIONS: POLAR AND NON-POLAR FACE ANALOGS” (THE REGENTS OF THE UNIVERSITY OF COLORADO, a body corporate, priority 2017, published 2020).
Peptide text beside a SMILES is read from it.

Columns and labels:
[1] = tested on: Acinetobacter baumannii NCTC 13420; assay type: cell-based; details: NCTC 13420
Procedure: (§1) Bacterial strains were acquired from the American Type Culture Collection (ATCC, Virginia, USA) and the National Collection of Type Cultures (NCTC, Public Health England, Salisbury, UK). Minimum Inhibitory Concentration (MIC) of peptides versus gram-negative strains-Acinetobacter baumannii NCTC 13420, and Pseudomonas aeruginosa ATCC 27853 and gram-positive strain Staphylococcus aureus ATCC 29213, were determined by broth microdilution as per the guidelines of the Clinical and Laboratory Standards Institute (“Methods for Dilution Antimicrobial Susceptibility Tests for Bacteria That Grow Aerobically”; Approved Standard-Ninth Edition. CLSI document M07-A9, 2012). Peptides were dissolved in sterile distilled water, which was also used as the drug-free vehicle control when determining peptide MICs. Prior to use in the MIC protocol, bacterial strains were grown on Mueller Hinton agar at 37° C. in an ambient atmosphere. […] A fixed inoculum of the test microorganism (5×10^5 cells/mL) is also added to the plate. The MIC is determined as the lowest concentration of compound that inhibits visible bacterial growth following incubation at 37° C. for 16-20 hours. A difference in MIC of two-fold between experimental replicates is considered to be within the normal variability of this protocol.

[2] = tested on: Pseudomonas aeruginosa ATCC 27853; assay type: cell-based; details: ATCC 27853
Procedure: as §1

[3] = tested on: Human erythrocytes; assay: Haemolysis assay using human blood; assay type: cell-based; details: red cells of human, 1 h
Procedure: To determine the extent of haemolytic activity (the ability to lyse red blood cells) in test peptides, a haemolysis assay was conducted using human blood (BioIVT, West Sussex, UK). Human erythrocytes were exposed to a single fixed concentration or a range of concentrations as to determine the % haemolysis (fixed concentration) or the concentration at which 50% haemolysis occurred (HC50), respectively. Prior to the assay, whole human blood was repeatedly washed in phosphate buffered saline (PBS) under cooled conditions to remove the buffy coat, plasma and cell debris. Washed erythrocytes were diluted as to achieve 1×10^8 cells/mL in PBS. Prepared human erythrocyte samples were combined with peptide at a single fixed concentration of 128 μg/mL, or a range of concentrations (two-fold dilution series) from 1000-31.25 μg/mL. Positive and negative controls containing 2% (v/v) Triton X-100 and PBS alone, respectively, were also prepared. Samples were incubated at 37° C. for 1 hour and then centrifuged to collect intact erythrocytes. Haemoglobin release was determined by recording the optical density of the supernatant at 540 nm. Optical density values were transformed to a percentage of the positive control. Results were recorded as a percentage haemolysis at 128 μg/mL, or by plotting the percentage haemolysis versus concentration and extrapolating the HC50 using linear regression analysis (Table 2 above)
The therapeutic index is a widely-accepted parameter to represent the specificity of antimicrobial peptides for prokaryotic versus eukaryotic cells. It is calculated by the ratio of hemolytic activity and antimicrobial activity (MIC) (Table 2 above); thus, larger values of therapeutic index indicate greater specificity for prokaryotic cells. With the peptides used in this study the inventors used the HC50/MIC ratio value to calculate the therapeutic index.

[4] = Peptide hydrophobicity by RP-HPLC retention; assay type: physicochemical; details: for tR (relative hydrophobicity by RP-HPLC): Zorbax SB-300 C8, 0.25% B/min from 10% B, 0.3 ml/min, 30° C.; for ΔtR (Lys): retention time difference to the Lys13/Lys16 parent peptide
Source text: Retention behavior in RP-HPLC is an excellent method to represent overall peptide hydrophobicity. Retention times of peptides are highly sensitive to the conformational status of the peptides upon interaction with the hydrophobic environment of the column matrix^17,26. The non-polar faces of amphipathic alpha-helical and amphipathic cyclic beta-sheet peptides represent a preferred binding domain for interaction with the hydrophobic matrix of the reversed-phase column^27. In this study, the observed peptide hydrophobicity was determined by RP-HPLC retention time as described below and are relative hydrophobicities because they are dependent on the TFA concentration and organic solvent in the mobile phase, gradient rate, temperature, flow rate and the column used. Analytical Purification by Reversed-phase Chromatography: Analytical RP-HPLC: Column: Zorbax SB-300 C8 (150×2.1 mm ID; 5-μm particle size; 300 Å pore size). Conditions: linear AB gradient (0.25% B/min from 10% B) at a flow-rate of 0.3 ml/min, where Eluent A is 0.2% aq. TFA and Eluent B is 0.18% TFA in acetonitrile; 30° C.

| Compound | Antimicrobial Activity MIC A. baumannii NCTC13420 [1] [µg/mL] | P. aeruginosa ATCC27853 MIC [2] [µg/mL] | tR (relative hydrophobicity by RP-HPLC) [4] [min] | ΔtR (Lys) [4] [min] | Haemolysis HC50 [3] [µg/mL] |
| --- | --- | --- | --- | --- | --- |
| CC(=O)N[C@H](C)C(=O)N[C@H](CC(C)C)C(=O)N[C@H](CO)C(=O)N[C@H](CO)C(=O)N[C@H](CC(C)C)C(=O)N[C@H](CC(C)C)C(=O)N[C@H](CO)C(=O)N[C@H](CCCCN)C(=O)N[C@H](CC(C)C)C(=O)N[C@H](CCCCN)C(=O)N[C@H](CCCCN)C(=O)N[C@H](C)C(=O)N[C@H](CCCCN)C(=O)N[C@H](CCCCN)C(=O)N[C@H](CCCCN)C(=O)N[C@H](CCCCN)C(=O)N[C@H](CC(C)C)C(=O)N[C@H](CCCCN)C(=O)N[C@H](CCCCN)C(=O)N[C@H](CC(C)C)C(=O)N[C@H](CC(C)C)C(=O)N[C@H](CCCCN)C(=O)N[C@H](C)C(=O)N[C@H](CC(C)C)C(=O)N[C@H](CO)C(=O)N[C@H](CO)C(N)=O [compound 10] (HELM PEPTIDE1{[ac].[dA].[dL].[dS].[dS].[dL].[dL].[dS].[dK].[dL].[dK].[dK].[dA].[dK].[dK].[dK].[dK].[dL].[dK].[dK].[dL].[dL].[dK].[dA].[dL].[dS].[dS].[am]}$$$$V2.0) | 2 | 2 |  |  | >1000 |
| CC(=O)N[C@H](C)C(=O)N[C@H](CC(C)C)C(=O)N[C@H](CCCCN)C(=O)N[C@H](CO)C(=O)N[C@H](CC(C)C)C(=O)N[C@H](CC(C)C)C(=O)N[C@H](CCCCN)C(=O)N[C@H](CCCCN)C(=O)N[C@H](CC(C)C)C(=O)N[C@H](CO)C(=O)N[C@H](CCCCN)C(=O)N[C@H](C)C(=O)N[C@H](CCCCN)C(=O)N[C@H](CCCCN)C(=O)N[C@H](CCCCN)C(=O)N[C@H](CCCCN)C(=O)N[C@H](CC(C)C)C(=O)N[C@H](CCCCN)C(=O)N[C@H](CCCCN)C(=O)N[C@H](CC(C)C)C(=O)N[C@H](CC(C)C)C(=O)N[C@H](CCCCN)C(=O)N[C@H](C)C(=O)N[C@H](CC(C)C)C(=O)N[C@H](CO)C(=O)N[C@H](CO)C(N)=O [compound 23] (HELM PEPTIDE1{[ac].[dA].[dL].[dK].[dS].[dL].[dL].[dK].[dK].[dL].[dS].[dK].[dA].[dK].[dK].[dK].[dK].[dL].[dK].[dK].[dL].[dL].[dK].[dA].[dL].[dS].[dS].[am]}$$$$V2.0) | 2 | 2 |  |  | 175 |
| CC(=O)N[C@H](CCCCN)C(=O)N[C@H](CC(C)C)C(=O)N[C@H](CCCCN)C(=O)N[C@H](CCCCN)C(=O)N[C@H](CC(C)C)C(=O)N[C@H](CC(C)C)C(=O)N[C@H](CCCCN)C(=O)N[C@H](CCCCN)C(=O)N[C@H](CC(C)C)C(=O)N[C@H](CO)C(=O)N[C@H](CO)C(=O)N[C@H](C)C(=O)N[C@H](CCN)C(=O)N[C@H](CO)C(=O)N[C@H](CO)C(=O)N[C@H](CCN)C(=O)N[C@H](CC(C)C)C(=O)N[C@H](CO)C(=O)N[C@@H](C(=O)N[C@H](CC(C)C)C(=O)N[C@H](CC(C)C)C(=O)N[C@H](CCCCN)C(=O)N[C@H](CCCCN)C(=O)N[C@H](CC(C)C)C(=O)N[C@H](CCCCN)C(=O)N[C@H](CCCCN)C(N)=O)[C@H](C)O [compound 15] (HELM PEPTIDE1{[ac].[dK].[dL].[dK].[dK].[dL].[dL].[dK].[dK].[dL].[dS].[dS].[dA].[NCC[C@@H](N[*:1])C(=O)[*:2]].[dS].[dS].[NCC[C@@H](N[*:1])C(=O)[*:2]].[dL].[dS].[dT].[dL].[dL].[dK].[dK].[dL].[dK].[dK].[am]}$$$$V2.0) | 2 | 4 | 83.40 | 3.97 | >1000 |
| CC(=O)N[C@H](CCCCN)C(=O)N[C@H](CC(C)C)C(=O)N[C@H](CCCCN)C(=O)N[C@H](CCCCN)C(=O)N[C@H](CC(C)C)C(=O)N[C@H](CC(C)C)C(=O)N[C@H](CCCCN)C(=O)N[C@H](CCCCN)C(=O)N[C@H](CC(C)C)C(=O)N[C@H](CO)C(=O)N[C@H](CO)C(=O)N[C@H](C)C(=O)N[C@H](CCCN)C(=O)N[C@H](CO)C(=O)N[C@H](CO)C(=O)N[C@H](CCCN)C(=O)N[C@H](CC(C)C)C(=O)N[C@H](CO)C(=O)N[C@@H](C(=O)N[C@H](CC(C)C)C(=O)N[C@H](CC(C)C)C(=O)N[C@H](CCCCN)C(=O)N[C@H](CCCCN)C(=O)N[C@H](CC(C)C)C(=O)N[C@H](CCCCN)C(=O)N[C@H](CCCCN)C(N)=O)[C@H](C)O [compound 14] (HELM PEPTIDE1{[ac].[dK].[dL].[dK].[dK].[dL].[dL].[dK].[dK].[dL].[dS].[dS].[dA].[NCCC[C@@H](N[*:1])C(=O)[*:2]].[dS].[dS].[NCCC[C@@H](N[*:1])C(=O)[*:2]].[dL].[dS].[dT].[dL].[dL].[dK].[dK].[dL].[dK].[dK].[am]}$$$$V2.0) | 2 | 4 | 83.40 | 3.97 | >1000 |

The next lines start with results.

| Antimicrobial Activity MIC A. baumannii NCTC13420 [1] [µg/mL] | P. aeruginosa ATCC27853 MIC [2] [µg/mL] | tR (relative hydrophobicity by RP-HPLC) [4] [min] | ΔtR (Lys) [4] [min] | Compound | Haemolysis HC50 [3] [µg/mL] |
| --- | --- | --- | --- | --- | --- |
| 1 | 2 |  |  | CC(=O)N[C@H](CCCCN)C(=O)N[C@H](CC(C)C)C(=O)N[C@H](CCCCN)C(=O)N[C@H](CO)C(=O)N[C@H](CC(C)C)C(=O)N[C@H](CC(C)C)C(=O)N[C@H](CCCCN)C(=O)N[C@H](CO)C(=O)N[C@H](CC(C)C)C(=O)N[C@H](CO)C(=O)N[C@H](CCCCN)C(=O)N[C@H](C)C(=O)N[C@H](CCCCN)C(=O)N[C@H](CCCCN)C(=O)N[C@H](CCCCN)C(=O)N[C@H](CCCCN)C(=O)N[C@H](CC(C)C)C(=O)N[C@H](CCCCN)C(=O)N[C@H](CO)C(=O)N[C@H](CC(C)C)C(=O)N[C@H](CC(C)C)C(=O)N[C@H](CCCCN)C(=O)N[C@H](C)C(=O)N[C@H](CC(C)C)C(=O)N[C@H](CO)C(=O)N[C@H](CCCCN)C(N)=O [compound 26] (HELM PEPTIDE1{[ac].[dK].[dL].[dK].[dS].[dL].[dL].[dK].[dS].[dL].[dS].[dK].[dA].[dK].[dK].[dK].[dK].[dL].[dK].[dS].[dL].[dL].[dK].[dA].[dL].[dS].[dK].[am]}$$$$V2.0) | >1000 |
| 1 | 2 |  |  | CC(=O)N[C@H](CCCCN)C(=O)N[C@H](CC(C)C)C(=O)N[C@H](CO)C(=O)N[C@H](CO)C(=O)N[C@H](CC(C)C)C(=O)N[C@H](CC(C)C)C(=O)N[C@H](CO)C(=O)N[C@H](CCCCN)C(=O)N[C@H](CC(C)C)C(=O)N[C@H](CCCCN)C(=O)N[C@H](CCCCN)C(=O)N[C@H](C)C(=O)N[C@H](CCCCN)C(=O)N[C@H](CCCCN)C(=O)N[C@H](CCCCN)C(=O)N[C@H](CCCCN)C(=O)N[C@H](CC(C)C)C(=O)N[C@H](CCCCN)C(=O)N[C@H](CCCCN)C(=O)N[C@H](CC(C)C)C(=O)N[C@H](CC(C)C)C(=O)N[C@H](CCCCN)C(=O)N[C@H](C)C(=O)N[C@H](CC(C)C)C(=O)N[C@H](CO)C(=O)N[C@H](CO)C(N)=O [compound 5] (HELM PEPTIDE1{[ac].[dK].[dL].[dS].[dS].[dL].[dL].[dS].[dK].[dL].[dK].[dK].[dA].[dK].[dK].[dK].[dK].[dL].[dK].[dK].[dL].[dL].[dK].[dA].[dL].[dS].[dS].[am]}$$$$V2.0) | 669 |
